Results: article PMC11212140, “Molecular Bidents with Two Electrophilic Warheads as a New Pharmacological Modality” (ACS Central Science, 2024)

Assays:
Experiment in all cases: KiNativ profiling in H3255 cells
Assay type in all cases: cell-based, human
[1] = tested on: ABL, ARG; conditions: 2.5 µM
Procedure: (§1) H3255 cells were plated with 6.5x10^6 per condition in fresh media in 15 cm plates and treated the 80% confluency for 2 hours with DMSO or 2.5 μM of ZNL-0056. To harvest cells, plates were washed 3 times with cold PBS, then collected by scraping into 4 mL of cold PBS containing protease and phosphatase inhibitors. Cells were pelleted by centrifugation at 1350 g at 4 ℃ for 5 minutes and immediately frozen in liquid nitrogen. The frozen samples were sent to ActivX Biosciences (La Jolla, CA) for the remainder of the KiNativ profiling experiment4. […]

[2] = tested on: T1, ACK; conditions: 2.5 µM
T1 construct: purchased ActivX Biosciences (KiNativ)
Procedure: as §1

[3] = tested on: T2, AurB; conditions: 2.5 µM; Lys1; SHFIVALKVLFK
T2 construct: purchased ActivX Biosciences (KiNativ)
Procedure: as §1

[4] = tested on: T3, BRAF, BRAF V600E; conditions: 2.5 µM; Lys2; DLKSNNIFLHEDLTVK
T3 construct: purchased ActivX Biosciences (KiNativ)
Procedure: as §1

[5] = tested on: T4, CLK2; conditions: 2.5 µM; Lys2; LTHTDLKPENILFVNSDYELTYNLEK
T4 construct: purchased ActivX Biosciences (KiNativ)
Procedure: as §1

[6] = tested on: T5, CSK; conditions: 2.5 µM
T5 construct: purchased ActivX Biosciences (KiNativ)
Procedure: as §1

[7] = tested on: T6, CaMK1d; conditions: 2.5 µM
T6 construct: purchased ActivX Biosciences (KiNativ)
Procedure: as §1

[8] = tested on: T7, EphA1; conditions: 2.5 µM; Activation Loop; LLDDFDGTYETQGGKIPIR
T7 construct: purchased ActivX Biosciences (KiNativ)
Procedure: as §1

[9] = tested on: T8, HRI; conditions: 2.5 µM; Activation Loop; IGDFGLACTDILQKNTDWTNR
T8 construct: purchased ActivX Biosciences (KiNativ)
Procedure: as §1

[10] = tested on: T9, IRAK1; conditions: 2.5 µM; Lys2; AIQFLHQDSPSLIHGDIKSSNVLLDER
T9 construct: purchased ActivX Biosciences (KiNativ)
Procedure: as §1

[11] = tested on: T10, LOK; conditions: 2.5 µM; Lys2; DLKAGNVLMTLEGDIR
T10 construct: purchased ActivX Biosciences (KiNativ)
Procedure: as §1

[12] = tested on: T11, MAP2K6; conditions: 2.5 µM
T11 construct: purchased ActivX Biosciences (KiNativ)
Procedure: as §1

[13] = tested on: MAP3K2, MAP3K3; conditions: 2.5 µM; Lys2; DIKGANILR
Procedure: as §1

[14] = tested on: T12, MAP3K2; conditions: 2.5 µM; Lys1; ELAVKQVQFDPDSPETSKEVNALECEIQLLK
T12 construct: purchased ActivX Biosciences (KiNativ)
Procedure: as §1

[15] = tested on: T13, MAP4K5; conditions: 2.5 µM
T13 construct: purchased ActivX Biosciences (KiNativ)
Procedure: as §1

[16] = tested on: MARK2, MARK3; conditions: 2.5 µM; Lys2; DLKAENLLLDADMNIK
Procedure: as §1

[17] = tested on: MER, TYRO3; conditions: 2.5 µM; Activation Loop; KIYSGDYYR
Procedure: as §1

[18] = tested on: T14, MLK3; conditions: 2.5 µM; Lys2; DLKSNNILLLQPIESDDMEHK
T14 construct: purchased ActivX Biosciences (KiNativ)
Procedure: as §1

[19] = tested on: T15, NEK7; conditions: 2.5 µM; Lys1; AACLLDGVPVALKK
T15 construct: purchased ActivX Biosciences (KiNativ)
Procedure: as §1

[20] = tested on: PCTAIRE1, PCTAIRE3; conditions: 2.5 µM; Lys2; DLKPQNLLINER
Procedure: as §1

[21] = tested on: T16, PIK3C3; conditions: 2.5 µM; ATP; TEDGGKYPVIFKHGDDLRQDQLILQIISLMDK
T16 construct: purchased ActivX Biosciences (KiNativ)
Procedure: as §1

[22] = tested on: PKD1, PKD2; conditions: 2.5 µM; Lys2; NIVHCDLKPENVLLASADPFPQVK
Procedure: as §1

[23] = tested on: T17, RIPK2; conditions: 2.5 µM; Lys1; VQVAVKHLHIHTPLLDSER
T17 construct: purchased ActivX Biosciences (KiNativ)
Procedure: as §1

[24] = tested on: RSK1 domain1, RSK2 domain1, RSK3 domain1; conditions: 2.5 µM; Lys2; DLKPENILLDEEGHIK
Procedure: as §1

[25] = tested on: T18, SGK; conditions: 2.5 µM
T18 construct: purchased ActivX Biosciences (KiNativ)
Procedure: as §1

[26] = tested on: T19, SIK; conditions: 2.5 µM; Lys1; TQVAIKIIDK
T19 construct: purchased ActivX Biosciences (KiNativ)
Procedure: as §1

[27] = tested on: T20, TLK1; conditions: 2.5 µM
T20 construct: purchased ActivX Biosciences (KiNativ)
Procedure: as §1

[28] = tested on: Wnk1, Wnk2, Wnk3; conditions: 2.5 µM; Lys2; DLKCDNIFITGPTGSVK
Procedure: as §1

[29] = tested on: T21, ZAK; conditions: 2.5 µM; Lys1; WISQDKEVAVKK
T21 construct: purchased ActivX Biosciences (KiNativ)
Procedure: as §1

[30] = tested on: T22, p38a; conditions: 2.5 µM
T22 construct: purchased ActivX Biosciences (KiNativ)
Procedure: as §1

[31] = tested on: T23, p38b; conditions: 2.5 µM; Other; QELNKTVWEVPQR
T23 construct: purchased ActivX Biosciences (KiNativ)
Procedure: as §1

[32] = Activation Loop, LMTGDTYTAHAGAKFPIK
[33] = Lys1, TVSVAVKCLKPDVLSQPEAMDDFIR
[34] = Activation Loop, VSDFGLTKEASSTQDTGKLPVK
[35] = Lys1, VAVKCIKNDATAQAFLAEASVMTQLR
[36] = Lys2, YLNEIKPPIIHYDLKPGNILLVDGTACGEIK

Structure (SMILES): C=CC(=O)Nc1cc(C(=O)Nc2nc3cccc(C)c3n2[C@@H]2CCCCN(C(=O)C=C)C2)cs1 [ZNL-0056]
- Inhibition [1, 32]: -3.8%
- Inhibition ([1]; Lys1, YSLTVAVKTLKEDTMEVEEFLK): 17.1%
- Inhibition ([2]; Activation Loop, KVPFAWCAPESLK): -21.4%
- Inhibition [2, 33]: -6.2%
- Inhibition [3]: 14.4%
- Inhibition [4]: 4.5%
- Inhibition [5]: 9.5%
- Inhibition [6, 34]: -1.9%
- Inhibition ([6]; Lys1, VAVKCIK): -0.8%
- Inhibition [6, 35]: 6.7%
- Inhibition ([7]; Lys1, LFAVKCIPK): 11.3%
- Inhibition ([7]; Lys2, DLKPENLLYYSQDEESK): 2.0%
- Inhibition [8]: -5.3%
- Inhibition [9]: 6.7%
- Inhibition [10]: 21.6%
- Inhibition [11]: -15.4%
- Inhibition ([12]; Lys1, HVPSGQIMAVKR): -13.1%
- Inhibition ([12]; Lys2, DVKPSNVLINALGQVK): -0.186%
- Inhibition [13]: -6.0%
- Inhibition [14]: 12.2%
- Inhibition ([15]; Lys1, NVHTGELAAVKIIK): -3.7%
- Inhibition ([15]; Lys2, DIKGANILLTDHGDVK): 15.2%
- Inhibition [16]: 9.0%
- Inhibition [17]: 2.6%
- Inhibition [18]: 26.8%
- Inhibition [19]: -9.3%
- Inhibition [20]: -3.3%
- Inhibition [21]: 6.7%
- Inhibition [22]: 7.5%
- Inhibition [23]: -9.6%
- Inhibition [24]: -1.0%
- Inhibition ([25]; Lys1, HKAEEVFYAVKVLQK): 12.6%
- Inhibition ([25]; Lys2, DLKPENILLDSQGHIVLTDFGLCK): 1.7%
- Inhibition [26]: 28.2%
- Inhibition ([27]; Lys1, YAAVKIHQLNK): 31.3%
- Inhibition [27, 36]: 13.1%
- Inhibition [28]: -34.6%
- Inhibition [29]: 12.1%
- Inhibition ([30]; Lys2, DLKPSNLAVNEDCELK): -10.4%
- Inhibition ([30]; Other, QELNKTIWEVPER): -5.0%
- Inhibition [31]: -8.8%

Structure (SMILES): C=CC(=O)Nc1cc(Nc2nccc(-c3cn(C)c4ccccc34)n2)c(OC)cc1N(C)CCN(C)C [Osimertinib, osimertinib, reference compound]
- Inhibition [1, 32]: 8.4%
- Inhibition ([1]; Lys1, YSLTVAVKTLKEDTMEVEEFLK): 4.3%
- Inhibition ([2]; Activation Loop, KVPFAWCAPESLK): 27.2%
- Inhibition [2, 33]: 25.7%
- Inhibition [3]: 9.9%
- Inhibition [4]: -9.2%
- Inhibition [5]: 26.6%
- Inhibition [6, 34]: -3.3%
- Inhibition ([6]; Lys1, VAVKCIK): -17.2%
- Inhibition [6, 35]: 16.1%
- Inhibition ([7]; Lys1, LFAVKCIPK): -14.3%
- Inhibition ([7]; Lys2, DLKPENLLYYSQDEESK): -8.2%
- Inhibition [8]: 5.8%
- Inhibition [9]: -4.0%
- Inhibition [10]: -50.3%
- Inhibition [11]: -8.3%
- Inhibition ([12]; Lys1, HVPSGQIMAVKR): 6.1%
- Inhibition ([12]; Lys2, DVKPSNVLINALGQVK): -10.0%
- Inhibition [13]: -6.6%
- Inhibition [14]: -20.3%
- Inhibition ([15]; Lys1, NVHTGELAAVKIIK): -13.4%
- Inhibition ([15]; Lys2, DIKGANILLTDHGDVK): -6.7%
- Inhibition [16]: -12.0%
- Inhibition [17]: 33.0%
- Inhibition [18]: -1.5%
- Inhibition [19]: -12.2%
- Inhibition [20]: 8.7%
- Inhibition [21]: -7.5%
- Inhibition [22]: -8.5%
- Inhibition [23]: 51.7%
- Inhibition [24]: -33.3%
- Inhibition ([25]; Lys1, HKAEEVFYAVKVLQK): 13.2%
- Inhibition ([25]; Lys2, DLKPENILLDSQGHIVLTDFGLCK): -15.1%
- Inhibition [26]: 48.0%
- Inhibition ([27]; Lys1, YAAVKIHQLNK): -53.3%
- Inhibition [27, 36]: 7.2%
- Inhibition [28]: 11.9%
- Inhibition [29]: -16.3%
- Inhibition ([30]; Lys2, DLKPSNLAVNEDCELK): 19.9%
- Inhibition ([30]; Other, QELNKTIWEVPER): 12.6%
- Inhibition [31]: 7.2%
